Data from ChEMBL document CHEMBL4627313, “Discovery of sulfonamides and 9-oxo-2,8-diazaspiro[5,5]undecane-2-carboxamides as human kynurenine aminotransferase 2 (KAT2) inhibitors” (Bioorg Med Chem Lett, 2020).

What follows are compounds tested against T1, Kynurenine/alpha-aminoadipate aminotransferase, mitochondrial (Homo sapiens, UniProt Q8N5Z0) (assay: Reversible inhibition of recombinant human KAT2 assessed as reduction in kynurenic acid formation at 50 uM using L-kynurenine as substrate by fluorescence assay relative to control).
Target sequence in this assay (Q8N5Z0 30-425 limits assumed): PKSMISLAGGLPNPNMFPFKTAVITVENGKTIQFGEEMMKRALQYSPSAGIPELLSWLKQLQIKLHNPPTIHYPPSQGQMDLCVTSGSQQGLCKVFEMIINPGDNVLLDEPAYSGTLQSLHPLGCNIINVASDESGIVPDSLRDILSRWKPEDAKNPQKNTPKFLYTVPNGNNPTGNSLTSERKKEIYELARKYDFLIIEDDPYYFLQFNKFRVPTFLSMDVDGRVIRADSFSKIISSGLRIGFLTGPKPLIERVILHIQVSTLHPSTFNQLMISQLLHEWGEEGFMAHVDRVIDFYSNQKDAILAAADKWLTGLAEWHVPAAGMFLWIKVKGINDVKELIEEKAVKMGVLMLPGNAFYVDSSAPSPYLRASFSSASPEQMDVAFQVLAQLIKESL
Work on `O=S(=O)(NC1CCNC1)c1ccc(Cl)cc1C(F)(F)F` (stereo unspecified) yielded an inhibition of 57%.
Compound `O=S(=O)(Nc1nnc(CC2CCCC2)o1)c1ccccc1` has an inhibition of 47%.
`O=S(=O)(Nc1nnc(C2(c3ccccc3)CC2)s1)c1cc(F)cc(F)c1` was tested, and the inhibition was 88%.

What follows are compounds tested against T1, Kynurenine/alpha-aminoadipate aminotransferase, mitochondrial (assay: Binding affinity to recombinant human KAT2 assessed as change in temperature by thermal shift assay).
Target sequence in this assay (Q8N5Z0 30-425 limits assumed): as above
`O=S(=O)(Nc1nnc(C2(c3ccccc3)CC2)s1)c1cc(F)cc(F)c1` gave a deltaT of 1.7 °C.

These compounds were tested against T1, Kynurenine/alpha-aminoadipate aminotransferase, mitochondrial (assay: Reversible inhibition of recombinant human KAT2 assessed as reduction in kynurenic acid formation using L-kynurenine as substrate by fluorescence assay).
Target sequence in this assay (Q8N5Z0 whole entry): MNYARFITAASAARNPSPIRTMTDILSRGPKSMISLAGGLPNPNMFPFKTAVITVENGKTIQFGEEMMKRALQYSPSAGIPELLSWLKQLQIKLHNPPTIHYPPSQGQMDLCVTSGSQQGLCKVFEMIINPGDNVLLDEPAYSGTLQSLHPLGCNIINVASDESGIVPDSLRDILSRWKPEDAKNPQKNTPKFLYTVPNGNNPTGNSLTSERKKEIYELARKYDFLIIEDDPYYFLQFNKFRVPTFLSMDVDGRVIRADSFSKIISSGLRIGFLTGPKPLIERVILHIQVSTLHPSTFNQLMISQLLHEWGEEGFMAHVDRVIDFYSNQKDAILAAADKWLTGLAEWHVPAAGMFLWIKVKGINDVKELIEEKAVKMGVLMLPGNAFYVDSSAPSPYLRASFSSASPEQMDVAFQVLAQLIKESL
With `COc1ccc(NC(=O)N2CCCC3(CCC(=O)N(C4CC4)C3)C2)cc1` (stereo in doubt; 11 E1) the IC50 was > 100 µM.
`CCc1cccc(NC(=O)N2CCCC3(CCC(=O)N(CCC(C)C)C3)C2)c1` (stereo in doubt; 7 E2) was tested, and the IC50 was 97 µM.
For `CCc1cccc(NC(=O)N2CCCC3(CCC(=O)N(CCC(C)C)C3)C2)c1` (racemic), the IC50 was 8 µM.
`COc1ccc(NC(=O)N2CCCC3(CCC(=O)N(C4CC4)C3)C2)cc1` (stereo in doubt; 11 E2) gave an IC50 of 15.5 µM.
Work on `CCc1cccc(NC(=O)N2CCCC3(CCC(=O)N(CCC(C)C)C3)C2)c1` (stereo in doubt; 7 E1) yielded an IC50 of 4.4 µM.
Compound `O=S(=O)(Nc1nnc(C2(c3ccccc3)CC2)s1)c1cc(F)cc(F)c1` has an IC50 of 16 µM.
In the case of `Cc1cc(C)cc(NC(=O)N2CCCC3(CCC(=O)N(C4CC4)C3)C2)c1` (stereo in doubt; 9 E2), the IC50 is reported as 74.9 µM.
With `O=C1CCC2(CCCN(C(=O)Nc3ccc(F)c(Cl)c3)C2)CN1CC1CC1` (stereo in doubt; 10 E2) the IC50 was 96.5 µM.
For `O=C1CCC2(CCCN(C(=O)Nc3ccc(F)c(Cl)c3)C2)CN1CC1CC1` (stereo in doubt; 10 E1), the IC50 was 2.4 µM.
With `Cc1ccc(NC(=O)N2CCCC3(CCC(=O)N(CCC(C)C)C3)C2)cc1Cl` (racemic) the IC50 was 0.81 µM.
`Cc1cc(C)cc(NC(=O)N2CCCC3(CCC(=O)N(C4CC4)C3)C2)c1` (stereo in doubt; 9 E1) was tested, and the IC50 was 4.5 µM.
`CC(C)C(Cc1nnc(NS(=O)(=O)c2cc(F)cc(F)c2)s1)c1cccc(F)c1` (stereo unspecified) was tested, and the IC50 was 1.6 µM.
